These results are taken from patent publication US5443986A, “Enzymatic analysis using substrates that yield fluorescent precipitates” (Molecular Probes, Inc., priority 1993, dated 1995).

The subject of one test is HEp-2 cells. Briefly: Enzyme-mediated immunohistochemical detection (SLE kit) on fixed HEp-2 cells. Type of test: cell-based, human. The conditions noted are these: 30 minute incubation, 100 mM MOPS pH 7.5, biotinylated alkaline phosphatase. The method, then:
1 ). Cells and Detection Kit. […] The kit includes slides containing wells of fixed HEp-2 cells (human epithelial cells) and a positive control consisting of anti-DNA antibodies isolated from humans with the disease. Normally, the slides are incubated with sera from patients and then probed with fluorescein-conjugated anti-human antibodies. Using this method, the nuclei of those cells that have been incubated with SLE-positive sera appear to have typical morphology that is identified by their green fluorescence using standard fluorescence microscopy whereas the negative controls have no fluorescence.
2). Sample Preparation. A four-step incubation protocol is used to prepare the slides. All reagents are diluted in 1% bovine serum albumin (BSA) in TRIS-buffered saline, pH 7.5 (TBS; 100 mM NaCl, 100 mM TRIS). Each incubation is 1/2 hour. Slides are washed three times with TBS between incubations. A typical procedure consists of the following steps:
1. The wells are incubated with either SLE-positive or -negative human sera (provided in the kit).
2. The wells are incubated with biotinylated goat anti-human ([…]).
3. The wells are incubated with streptavidin (50 μg/mL), a reagent that has four binding sites for biotin. Excess binding sites are available for binding the next reagent.
4. The wells are incubated with a biotinylated enzyme that will remove BLOCK from the subject substrates. […]

In a further test the target is alkaline phosphatase (Bos taurus, UniProt P19111). Briefly: Detection of enzyme on non-denaturing gels after electrophoresis. Format: biochemical. The procedure:
1 ). Detecting enzymes on native gels using precipitating substrates. Gel electrophoresis is a common method for identifying proteins in fluids and tissue homogenates. In native gel electrophoresis, the proteins retain their activity during the process of separation and thus can hypothetically be identified by activity assays. By incubating the native gel with various precipitating substrates specific for the analyte enzyme, one can identify whether the enzyme is present in the loaded sample. These methods are used for investigating the expression of both endogenous enzymes and enzyme-fusion proteins and for the detection of the enzyme in samples suspected of containing the enzyme. A protocol commonly used in these experiments is as follows:
1. The enzyme-containing sample is mixed with the sample buffer (0.075M TRIS-HCl in 50% glycerol, pH 6.8) to a concentration that is appropriate for loading the enzyme. The sample is loaded onto a 4-20% gradient acrylamide gel. The gel is run at 30 mA for approximately 30 minutes.
2. The gel is incubated in a buffer that is optimal for the enzyme being detected and that contains 1 mM of the substrate. For alkaline phosphatase the buffer used is 100 mM MOPS, 50 mM NaCl, 1 mM MgCl2, 0.1 mM ZnCl2, pH 7.5. The appearance of fluorescent bands is monitored using a hand-held ultraviolet lamp.
2). Comparing the sensitivity of enzyme detection using precipitating substrates versus standard Coomassie Blue detection. Decreasing amounts of alkaline phosphatase are loaded into the lanes of two gels. The amount of alkaline phosphatase loaded into each lane varies from […]. After electrophoresis, one gel is developed for visualization using standard Coomassie Blue-staining procedures; the other by incubation with 1 mM 8e as described above. The minimum detectable quantity of alkaline phosphatase using standard Coomassie Blue-staining methods is 1 μg. After incubation with 8e for 30 minutes, 1 ng of alkaline phosphatase is clearly visible using a handheld UV-lamp. After approximately 20 hours incubation, 0.25 ng of alkaline phosphatase can be visibly detected without any signal enhancement. These experiments indicate that incubation with the precipitating substrate provides a method for enzyme detection that is 4000 times more sensitive than standard Coomassie Blue-staining methods. […] Multiple proteins or extracts can be run in a single lane with only the enzyme specific for the synthetic substrate being detected by the staining.

Chain of alkaline phosphatase (P19111 20-506 limits assumed): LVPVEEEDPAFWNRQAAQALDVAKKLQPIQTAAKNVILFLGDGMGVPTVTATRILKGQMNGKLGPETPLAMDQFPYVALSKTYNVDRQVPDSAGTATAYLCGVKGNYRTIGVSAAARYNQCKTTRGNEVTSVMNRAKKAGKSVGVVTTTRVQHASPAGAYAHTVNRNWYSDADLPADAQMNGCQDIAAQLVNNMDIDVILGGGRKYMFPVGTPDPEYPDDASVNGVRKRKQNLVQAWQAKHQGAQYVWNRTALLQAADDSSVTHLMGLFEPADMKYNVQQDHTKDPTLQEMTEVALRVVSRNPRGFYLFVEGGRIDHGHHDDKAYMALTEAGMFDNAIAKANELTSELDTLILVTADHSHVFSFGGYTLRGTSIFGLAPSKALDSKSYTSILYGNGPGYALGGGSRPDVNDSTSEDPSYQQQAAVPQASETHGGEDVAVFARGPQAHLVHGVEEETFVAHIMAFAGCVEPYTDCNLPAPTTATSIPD

As for `O=c1[nH]c(-c2cc(Cl)ccc2OP(=O)(O)O)nc2ccc(Cl)cc12` [8e, Ammonium 2-(5'-chloro-2'-phosphoryloxyphenyl)-6-chloro-4-(3H)-quinazolinone], in the test with HEp-2 cells, the “staining of cells incubated with SLE-positive sera” value is listed as “brightly fluorescent nuclei” and the “staining of wells incubated with negative sera” value is on record as “No signal is detected”. In addition, the “quantity of alkaline phosphatase clearly visible on the gel” value on alkaline phosphatase (1 mM substrate, 30 minutes incubation, handheld UV-lamp) was 1 ng. Moreover, the “quantity of alkaline phosphatase visibly detected on the gel” value on alkaline phosphatase (1 mM substrate, approximately 20 hours incubation, no signal enhancement) is recorded as 0.25 ng. Moreover, on alkaline phosphatase (enzyme detection on gel), the “sensitivity relative to standard Coomassie Blue-staining methods” value is 4000 times. In addition, at alkaline phosphatase (lanes loaded with 2-μg bovine serum albumin or 2-μg β-galactosidase), the “staining of negative control lanes” value is “does not stain lanes”.
